The text below walks through data of US4959375A, “Piperidine derivatives useful as 5-HT3 antagonists” (John Wyeth & Brothers Limited, priority 1988, dated 1990).

This assay deals with T1, 5-HT3 receptors (Oryctolagus cuniculus, UniProt A0A5F9C9J3).
T1 construct: 5-HT3 receptors present on sympathetic nerve terminals in the heart; from tissue; host or cells: isolated right atrium of the rabbit heart
T1 sequence (A0A5F9C9J3 1-494): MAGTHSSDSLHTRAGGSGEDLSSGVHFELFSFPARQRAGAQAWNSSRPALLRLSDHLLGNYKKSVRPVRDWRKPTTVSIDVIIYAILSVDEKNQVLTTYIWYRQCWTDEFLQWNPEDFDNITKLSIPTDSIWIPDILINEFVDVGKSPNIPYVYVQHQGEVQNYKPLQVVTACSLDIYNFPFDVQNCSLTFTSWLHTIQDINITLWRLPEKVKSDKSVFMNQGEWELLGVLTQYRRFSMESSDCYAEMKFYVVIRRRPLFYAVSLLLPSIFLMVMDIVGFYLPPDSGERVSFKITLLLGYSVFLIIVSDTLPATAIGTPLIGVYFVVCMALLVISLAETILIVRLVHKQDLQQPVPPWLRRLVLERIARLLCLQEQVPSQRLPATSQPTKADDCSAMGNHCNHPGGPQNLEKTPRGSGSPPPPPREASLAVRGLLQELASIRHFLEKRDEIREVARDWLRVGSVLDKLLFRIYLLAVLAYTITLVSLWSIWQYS
Briefly: 5-HT3 antagonistic activity in the isolated right atrium of the rabbit heart. As to conditions: chronotropic response to 10^-5 M 5-HT, read-out: -log IC50 (IC50 is the concentration of antagonist which reduces the chronotropic response to 10^-5 M 5-HT by 50%) (converted). On the procedure:
The compounds of the invention are tested for 5-HT3 antagonistic activity in the isolated right atrium of the rabbit heart based upon the method of Fozard J. R., Naunyn Schmiedeberg's Arch. Pharmacol., 1984, 326, 36-44. This procedure relies upon the ability of 5-HT to stimulate 5-HT3 receptors present on sympathetic nerve terminals in the heart, causing release of noradrenaline which evokes an increase in the spontaneous rate of beating. The antagonist potency is expressed as -log IC50 (where IC50 is the concentration of antagonist which reduces the chronotropic response to 10^--5 M 5-HT by 50%).

As for `CN(C)C1CCCN(C(=O)c2n[nH]c3ccccc23)C1` (centres unmarked) [Example 4, 3-Dimethylamino-1-[[(1H)-indazol 3 yl]carbonyl]piperidine], the IC50 is 7.94 nM.
As for `CN(C)C1CCCN(C(=O)c2c[nH]c3ccccc23)C1` (centres unmarked) [Example 1, 3-Dimethylamino-1-[[(1H)-indol 3 yl]carbonyl]piperidine], the IC50 is 20 nM.
